Results reported in the NIST ThermoML archive (doi:10.1016/j.jct.2010.10.018).

Experiment: xn = mol fraction of the nth substance listed
Settings: 101 kPa, Liquid, Vibrating tube method

CC(C)(C)O [2-methylpropan-2-ol] + O
Settings | mass density [kg/m3]
274.15 K, x1 = 0.00089 | 999.21
274.15 K, x1 = 0.00146 | 998.81
274.15 K, x1 = 0.00269 | 997.91
274.15 K, x1 = 0.00403 | 997.02
274.15 K, x1 = 0.00513 | 996.3
274.15 K, x1 = 0.00761 | 994.82
274.15 K, x1 = 0.01051 | 993.19
274.15 K, x1 = 0.01405 | 991.42
274.15 K, x1 = 0.01793 | 989.78
274.15 K, x1 = 0.02241 | 988.11
274.15 K, x1 = 0.03005 | 985.71
274.15 K, x1 = 0.04242 | 982.79
274.15 K, x1 = 0.08929 | 966.2
275.15 K, x1 = 0.00089 | 999.25
275.15 K, x1 = 0.00146 | 998.85
275.15 K, x1 = 0.00269 | 997.96
275.15 K, x1 = 0.00403 | 997.06
275.15 K, x1 = 0.00513 | 996.34
275.15 K, x1 = 0.00761 | 994.84
275.15 K, x1 = 0.01051 | 993.21
275.15 K, x1 = 0.01405 | 991.44
275.15 K, x1 = 0.01793 | 989.78
275.15 K, x1 = 0.02241 | 988.08
275.15 K, x1 = 0.03005 | 985.63
275.15 K, x1 = 0.04242 | 982.59
275.15 K, x1 = 0.08929 | 965.24
276.15 K, x1 = 0.00089 | 999.28
276.15 K, x1 = 0.00146 | 998.89
276.15 K, x1 = 0.00269 | 997.99
276.15 K, x1 = 0.00403 | 997.09
276.15 K, x1 = 0.00513 | 996.36
276.15 K, x1 = 0.00761 | 994.86
276.15 K, x1 = 0.01051 | 993.23
276.15 K, x1 = 0.01405 | 991.43
276.15 K, x1 = 0.01793 | 989.76
276.15 K, x1 = 0.02241 | 988.02
276.15 K, x1 = 0.03005 | 985.53
276.15 K, x1 = 0.04242 | 982.37
276.15 K, x1 = 0.08929 | 964.42
277.15 K, x1 = 0.00089 | 999.29
277.15 K, x1 = 0.00146 | 998.9
277.15 K, x1 = 0.00269 | 998.01
277.15 K, x1 = 0.00403 | 997.1
277.15 K, x1 = 0.00513 | 996.37
277.15 K, x1 = 0.00761 | 994.85
277.15 K, x1 = 0.01405 | 991.42
278.15 K, x1 = 0.00089 | 999.28
278.15 K, x1 = 0.00146 | 998.89
278.15 K, x1 = 0.00269 | 998.01
278.15 K, x1 = 0.00403 | 997.1
278.15 K, x1 = 0.00513 | 996.37
278.15 K, x1 = 0.00761 | 994.85
278.15 K, x1 = 0.01051 | 993.21
278.15 K, x1 = 0.01405 | 991.41
278.15 K, x1 = 0.01793 | 989.68
278.15 K, x1 = 0.02241 | 987.87
278.15 K, x1 = 0.0248 | 986.88
278.15 K, x1 = 0.03005 | 985.29
278.15 K, x1 = 0.03494 | 983.86
278.15 K, x1 = 0.04241 | 981.87
278.15 K, x1 = 0.04242 | 981.89
278.15 K, x1 = 0.05218 | 979.23
278.15 K, x1 = 0.05887 | 977
278.15 K, x1 = 0.06973 | 972.66
278.15 K, x1 = 0.08929 | 962.87
278.15 K, x1 = 0.1125 | 951.21
278.15 K, x1 = 0.1566 | 929.91
278.15 K, x1 = 0.208 | 910.57
278.15 K, x1 = 0.2408 | 899.29
278.15 K, x1 = 0.3023 | 882.17
278.15 K, x1 = 0.3451 | 872.16
278.15 K, x1 = 0.4045 | 860.22
278.15 K, x1 = 0.4225 | 857.05
278.15 K, x1 = 0.4653 | 849.9
278.15 K, x1 = 0.5344 | 839.61
278.15 K, x1 = 0.6029 | 831.08
278.15 K, x1 = 0.6909 | 821.72
278.15 K, x1 = 0.726 | 818.36
278.15 K, x1 = 0.7999 | 812.56
279.15 K, x1 = 0.00089 | 999.26
279.15 K, x1 = 0.00146 | 998.87
279.15 K, x1 = 0.00269 | 997.99
279.15 K, x1 = 0.00403 | 997.08
279.15 K, x1 = 0.00513 | 996.35
279.15 K, x1 = 0.00761 | 994.79
279.15 K, x1 = 0.01405 | 991.37
280.15 K, x1 = 0.00089 | 999.22
280.15 K, x1 = 0.00146 | 998.83
280.15 K, x1 = 0.00269 | 997.95
280.15 K, x1 = 0.00403 | 997.04
280.15 K, x1 = 0.00513 | 996.31
280.15 K, x1 = 0.00761 | 994.76
280.15 K, x1 = 0.01051 | 993.13
280.15 K, x1 = 0.01405 | 991.32
280.15 K, x1 = 0.01793 | 989.57
280.15 K, x1 = 0.02241 | 987.69
280.15 K, x1 = 0.03005 | 985
280.15 K, x1 = 0.04242 | 981.35
280.15 K, x1 = 0.08929 | 961.26
281.15 K, x1 = 0.00089 | 999.17
281.15 K, x1 = 0.00146 | 998.78
281.15 K, x1 = 0.00269 | 997.9
281.15 K, x1 = 0.00403 | 996.99
281.15 K, x1 = 0.00513 | 996.26
281.15 K, x1 = 0.00761 | 994.7
281.15 K, x1 = 0.01405 | 991.25
282.15 K, x1 = 0.00089 | 999.1
282.15 K, x1 = 0.00146 | 998.72
282.15 K, x1 = 0.00269 | 997.84
282.15 K, x1 = 0.00403 | 996.93
282.15 K, x1 = 0.00513 | 996.19
282.15 K, x1 = 0.00761 | 994.63
282.15 K, x1 = 0.01405 | 991.16
283.15 K, x1 = 0.00089 | 999.02
283.15 K, x1 = 0.00146 | 998.63
283.15 K, x1 = 0.00269 | 997.76
283.15 K, x1 = 0.00403 | 996.85
283.15 K, x1 = 0.00513 | 996.12
283.15 K, x1 = 0.00761 | 994.57
283.15 K, x1 = 0.01405 | 991.06
288.15 K, x1 = 0.00089 | 998.43
288.15 K, x1 = 0.00146 | 998.04
288.15 K, x1 = 0.00269 | 997.17
288.15 K, x1 = 0.00403 | 996.26
288.15 K, x1 = 0.00513 | 995.52
288.15 K, x1 = 0.00761 | 993.96
288.15 K, x1 = 0.01405 | 990.35
288.15 K, x1 = 0.0248 | 985.26
288.15 K, x1 = 0.03494 | 981.48
288.15 K, x1 = 0.04241 | 978.77
288.15 K, x1 = 0.05218 | 974.85
288.15 K, x1 = 0.05887 | 971.81
288.15 K, x1 = 0.06973 | 966.34
288.15 K, x1 = 0.1125 | 943.7
288.15 K, x1 = 0.1566 | 922.09
288.15 K, x1 = 0.208 | 902.66
288.15 K, x1 = 0.2408 | 891.25
288.15 K, x1 = 0.3023 | 874
288.15 K, x1 = 0.3451 | 863.89
288.15 K, x1 = 0.4045 | 851.78
288.15 K, x1 = 0.4225 | 848.63
288.15 K, x1 = 0.4653 | 841.48
288.15 K, x1 = 0.5344 | 830.98
288.15 K, x1 = 0.6029 | 822.27
288.15 K, x1 = 0.6909 | 812.77
288.15 K, x1 = 0.726 | 809.38
288.15 K, x1 = 0.7999 | 803.46
288.15 K, x1 = 0.8711 | 797.8
288.15 K, x1 = 0.9183 | 794.66
298.15 K, x1 = 0.00089 | 996.39
298.15 K, x1 = 0.00146 | 996
298.15 K, x1 = 0.00269 | 995.11
298.15 K, x1 = 0.00403 | 994.19
298.15 K, x1 = 0.00513 | 993.44
298.15 K, x1 = 0.00761 | 991.84
298.15 K, x1 = 0.01405 | 988.08
298.15 K, x1 = 0.0248 | 982.45
298.15 K, x1 = 0.03494 | 977.97
298.15 K, x1 = 0.04241 | 974.54
298.15 K, x1 = 0.05218 | 969.58
298.15 K, x1 = 0.05887 | 965.94
298.15 K, x1 = 0.06973 | 959.94
298.15 K, x1 = 0.1125 | 936.18
298.15 K, x1 = 0.1566 | 914.18
298.15 K, x1 = 0.208 | 894.55
298.15 K, x1 = 0.2408 | 883.06
298.15 K, x1 = 0.3023 | 865.6
298.15 K, x1 = 0.3451 | 855.48
298.15 K, x1 = 0.4045 | 843.11
298.15 K, x1 = 0.4225 | 839.94
298.15 K, x1 = 0.4653 | 832.83
298.15 K, x1 = 0.5344 | 822.05
